The subject of test [1] is acute lymphoblastic leukemia. The note with it: NOS/SCID xenograft mouse model of acute lymphoblastic leukemia; cited from earlier work.
A further test has as its system MDA468. The test is described as follows: In vitro cell culture growth assay (MTS). The note with it: Homo sapiens, 72 h, breast line MDA468, three days after drug treatment. It counts as cell-based. The method, then:
In Vitro Cell Culture Growth Assay Methods:
Human tumor cell lines used include prostate lines LNCap and PC3MM2, breast lines MDA468, MCF7, renal line HTB44 (A498), colon line HCT116, and ovarian line OVCAR3. Cells were plated in 96-well culture plates. One day following plating, the inhibitors were added to cells. Three days after drug treatment, viable cell densities were determined by metabolic conversion (by viable cells) of the dye MTS, a well-established cell proliferation assay. The assays were performed using an assay kit purchased from Promega Corp. (Madison, Wis.) following the protocol supplied with the kit. The MTS assay results were read in a 96-well plate reader by measuring absorbance at 490 nm. The effect of each treatment was calculated as percent of control growth relative to the vehicle-treated cells grown in the same culture plate. The drug concentration that conferred 50% inhibition of growth was determined as IC50 (μg/ml).

The next test addresses T1, Human mTOR (Homo sapiens, UniProt P42345).
T1 construct: FLAG
The test is described as follows: mTOR kinase assay (DELFIA format, purified enzyme). It counts as biochemical. The note with it: His6-S6K substrate, read-out: TOR Kinase IC50.

The next test deals with LNCap. The test can be described thus: In vitro cell culture growth assay (MTS). The settings on record: Homo sapiens, 72 h, prostate line LNCap, three days after drug treatment. It counts as cell-based.
In another test the target is PI3 Kinase α (Homo sapiens, UniProt P42336). The test is described as follows: Fluorescence polarization assay for PI3K. The class given is biochemical. (Fluorescence polarisation rises when a labelled molecule tumbles more slowly, as on binding a larger partner.)
Another test addresses PI3 Kinase γ (Homo sapiens, UniProt P48736). The test is described as follows: Fluorescence polarization assay for PI3K. It counts as biochemical.

This is an account of results in patent US20090192176A1, “1H-PYRAZOLO[3,4-D]PYRIMIDINE, PURINE, 7H-PURIN-8(9H)-ONE, 3H-[1,2,3]TRIAZOLO[4,5-D]PYRIMIDINE, AND THIENO[3,2-D]PYRIMIDINE COMPOUNDS, THEIR USE AS mTOR KINASE AND PI3 KINASE INHIBITORS, AND THEIR SYNTHESES” (Wyeth, priority 2008, published 2009).

Chain of PI3 Kinase α (P42336 whole entry): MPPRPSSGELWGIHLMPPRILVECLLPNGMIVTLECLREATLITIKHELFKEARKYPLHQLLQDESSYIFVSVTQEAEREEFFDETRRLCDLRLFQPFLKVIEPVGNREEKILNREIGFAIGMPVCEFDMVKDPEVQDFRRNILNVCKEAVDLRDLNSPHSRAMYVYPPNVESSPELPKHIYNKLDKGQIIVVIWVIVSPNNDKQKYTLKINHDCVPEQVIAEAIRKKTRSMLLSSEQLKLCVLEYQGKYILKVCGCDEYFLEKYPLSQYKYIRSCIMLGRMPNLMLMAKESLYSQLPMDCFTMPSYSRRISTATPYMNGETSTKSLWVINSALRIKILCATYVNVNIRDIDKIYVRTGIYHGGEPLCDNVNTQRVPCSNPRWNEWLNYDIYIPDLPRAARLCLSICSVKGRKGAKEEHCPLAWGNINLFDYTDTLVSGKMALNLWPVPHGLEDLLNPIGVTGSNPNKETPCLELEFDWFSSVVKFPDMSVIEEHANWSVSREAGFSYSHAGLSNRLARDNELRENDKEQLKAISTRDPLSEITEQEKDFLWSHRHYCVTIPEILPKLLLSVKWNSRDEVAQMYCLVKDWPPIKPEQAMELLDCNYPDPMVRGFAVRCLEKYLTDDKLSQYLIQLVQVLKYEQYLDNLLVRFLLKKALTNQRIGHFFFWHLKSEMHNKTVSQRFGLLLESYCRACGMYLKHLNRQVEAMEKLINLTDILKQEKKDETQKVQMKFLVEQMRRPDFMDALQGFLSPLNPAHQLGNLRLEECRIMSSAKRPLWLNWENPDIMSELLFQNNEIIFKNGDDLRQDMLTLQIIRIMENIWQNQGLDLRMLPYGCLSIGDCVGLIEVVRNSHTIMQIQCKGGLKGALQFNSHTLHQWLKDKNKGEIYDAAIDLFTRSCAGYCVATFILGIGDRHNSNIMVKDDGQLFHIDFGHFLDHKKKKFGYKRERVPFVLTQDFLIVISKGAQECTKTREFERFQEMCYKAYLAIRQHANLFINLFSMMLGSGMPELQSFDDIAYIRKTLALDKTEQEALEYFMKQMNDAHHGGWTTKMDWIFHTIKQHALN
Chain of PI3 Kinase α (P27986 whole entry partner): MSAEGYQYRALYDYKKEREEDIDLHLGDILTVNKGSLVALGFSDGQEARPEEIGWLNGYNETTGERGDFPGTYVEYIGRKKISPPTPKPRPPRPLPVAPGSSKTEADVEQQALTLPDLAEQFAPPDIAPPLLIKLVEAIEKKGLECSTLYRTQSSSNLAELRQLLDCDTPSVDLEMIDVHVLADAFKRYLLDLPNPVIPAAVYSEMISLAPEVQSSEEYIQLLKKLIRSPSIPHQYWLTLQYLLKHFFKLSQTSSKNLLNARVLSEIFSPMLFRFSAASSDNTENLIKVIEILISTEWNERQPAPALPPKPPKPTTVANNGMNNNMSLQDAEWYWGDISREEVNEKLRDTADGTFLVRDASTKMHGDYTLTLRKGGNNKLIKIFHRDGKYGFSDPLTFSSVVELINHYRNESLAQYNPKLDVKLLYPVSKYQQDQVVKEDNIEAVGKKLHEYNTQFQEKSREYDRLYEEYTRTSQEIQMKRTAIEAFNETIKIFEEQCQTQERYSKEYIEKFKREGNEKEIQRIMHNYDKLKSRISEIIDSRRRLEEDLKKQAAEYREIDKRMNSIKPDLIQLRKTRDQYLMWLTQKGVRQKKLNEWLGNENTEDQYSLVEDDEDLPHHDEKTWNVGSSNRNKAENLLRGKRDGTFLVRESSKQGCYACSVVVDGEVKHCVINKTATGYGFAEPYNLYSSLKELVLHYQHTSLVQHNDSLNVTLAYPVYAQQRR
Chain of PI3 Kinase γ (P48736 whole entry): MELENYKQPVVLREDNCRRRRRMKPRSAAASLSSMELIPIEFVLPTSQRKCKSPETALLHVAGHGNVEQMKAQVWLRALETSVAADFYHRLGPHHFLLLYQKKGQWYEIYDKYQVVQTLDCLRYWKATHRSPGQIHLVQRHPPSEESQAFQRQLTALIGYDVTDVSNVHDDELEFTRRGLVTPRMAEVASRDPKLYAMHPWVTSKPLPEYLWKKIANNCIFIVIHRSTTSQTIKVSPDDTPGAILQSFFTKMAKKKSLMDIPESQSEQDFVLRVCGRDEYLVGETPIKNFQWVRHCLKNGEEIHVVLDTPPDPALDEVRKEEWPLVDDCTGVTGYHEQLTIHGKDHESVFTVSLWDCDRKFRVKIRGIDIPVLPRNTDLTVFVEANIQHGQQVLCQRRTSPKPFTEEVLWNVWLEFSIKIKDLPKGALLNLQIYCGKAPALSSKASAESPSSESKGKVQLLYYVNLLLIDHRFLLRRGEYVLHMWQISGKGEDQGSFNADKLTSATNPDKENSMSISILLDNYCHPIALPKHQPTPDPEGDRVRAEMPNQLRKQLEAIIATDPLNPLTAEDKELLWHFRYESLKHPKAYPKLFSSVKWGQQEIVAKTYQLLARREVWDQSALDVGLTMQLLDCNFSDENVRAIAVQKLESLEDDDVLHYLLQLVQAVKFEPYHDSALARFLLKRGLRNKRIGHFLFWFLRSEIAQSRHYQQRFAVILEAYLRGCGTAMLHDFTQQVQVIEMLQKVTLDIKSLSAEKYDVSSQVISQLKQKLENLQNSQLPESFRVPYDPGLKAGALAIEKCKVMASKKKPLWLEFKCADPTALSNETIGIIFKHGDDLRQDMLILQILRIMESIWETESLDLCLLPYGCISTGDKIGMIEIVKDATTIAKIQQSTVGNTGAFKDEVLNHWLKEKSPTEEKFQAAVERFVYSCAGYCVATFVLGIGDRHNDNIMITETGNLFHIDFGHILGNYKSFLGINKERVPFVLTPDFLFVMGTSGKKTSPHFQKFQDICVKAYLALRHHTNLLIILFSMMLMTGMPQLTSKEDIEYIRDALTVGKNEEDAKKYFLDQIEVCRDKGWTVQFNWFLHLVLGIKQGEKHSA

For the compound `CO[C@H]1C[C@@H]2CC[C@@H](C)[C@@](O)(O2)C(=O)C(=O)N2CCCC[C@H]2C(=O)O[C@H]([C@H](C)C[C@@H]2CC[C@@H](OC(=O)C(C)(CO)CO)[C@H](OC)C2)CC(=O)[C@H](C)/C=C(\C)[C@@H](O)[C@@H](OC)C(=O)[C@H](C)C[C@H](C)/C=C/C=C/C=C/1C` [Torisel], the “activity in xenograft model” value in test [1] is on record as “active”.
Consider `CNC(=O)Nc1ccc(-c2nc(C3=CCOCC3)c3cnn(CC(F)(F)F)c3n2)cc1` [Compound 6, 1-{4-[4-(3,6-dihydro-2H-pyran-4-yl)-1-(2,2,2-trifluoroethyl)-1H-pyrazolo[3,4-d]pyrimidin-6-yl]phenyl}-3-methylurea], for which the IC50 in the test with MDA468 was found to be 950 nM; at Human mTOR it was 2.4 nM; with LNCap, 260 nM; against PI3 Kinase α it was 212 nM; on PI3 Kinase γ it was 3030 nM.
In the same order, the values of `O=C(Nc1ccc(-c2nc(C3=CCOCC3)c3cnn(CC(F)(F)F)c3n2)cc1)OCCO` [Compound 10a, 2-hydroxyethyl {4-[4-(3,6-dihydro-2H-pyran-4-yl)-1-(2,2,2-trifluoroethyl)-1H-pyrazolo[3,4-d]pyrimidin-6-yl]phenyl}carbamate] are 1200 nM, 3550 nM, 170 nM, 696 nM and 3360 nM.
In the same order, the values of `O=C(Nc1ccccc1)Nc1ccc(-c2nc(C3=CCOCC3)c3cnn(CC(F)(F)F)c3n2)cc1` [Compound 9, 1-{4-[4-(3,6-dihydro-2H-pyran-4-yl)-1-(2,2,2-trifluoroethyl)-1H-pyrazolo[3,4-d]pyrimidin-6-yl]phenyl}-3-phenylurea] are 230 nM, 2.6 nM, 96 nM, 43 nM and 74 nM.

As a reminder, the IC50 is the concentration needed to halve the response being measured.
